Test results reported in patent publication US20240009174A1, “METHODS FOR DISRUPTING MITOCHONDRIAL UNFOLDED PROTEIN RESPONSE” (Health Research, Inc., priority 2020, published 2024).
One block for each compound: values may come before it.

Assays:
Format in all cases: cell-based
LNCaP and PC-3 cells = test: Rescue of DCEM1-induced cell death by ROS quenchers (MTT cell viability)
Method: FIG. 6. Pharmacological inhibition of HSP60-ClpP interaction induces UPR^mt and PCa cell death. (A) Docking of DCEM1 into apical domain of HSP60. (B) LNCaP and PC-3 cells were treated with DCEM1 for 24 hours and HSP60-ClpP interaction was analyzed by co-immunoprecipitation assay. (C) LNCaP and PC-3 cells were treated with DCEM1 for 24 hours and mitoROS levels were analyzed by flow cytometry using mitoSOX dye. (D) LNCaP and PC-3 cells were treated with DCEM1 for 24 hours and poly-Ub protein levels were analyzed by western blotting. (E) LNCaP and PC-3 cells were treated with DCEM1 for 24 and 48 hours and apoptotic cell populations were analyzed by flow cytometry using Annexin V FITC/PI method as explained in materials and methods. In (E) top panel, the bars in each series from left to right are control, 5, 10, and 20, and in (E) bottom panel, the bars in each series from left to right are DMSO, 5, 10, and 20. (F) LNCaP and PC-3 cells were treated with DCEM1 for 24 and 48 hours and lysates were prepared and analyzed for DEVDase activity using specific peptide substrate. […] (G) LNCaP and PC-3 cells were pre-treated with SKQ1 followed by DCEM1 treatment and analyzed for cell viability by MTT assay. (H) LNCaP and PC-3 cells were treated with either DCEM1 or H2O2 (200 μM) for 24 hours and total DNA were isolated and analyzed for mtDNA damage as described in materials and methods. […]

HSP60-silenced cells = test: Cell death in HSP60-silenced cells versus mock cells
Text: Although cancer cells prefer aerobic glycolysis for energy, continual production of ATP via OXPHOS system is still required for rapid cancer cell survival and growth. ClpP along with LonP1 degrades Complex I during stress to alleviate mtROS, thus promoting cell survival. HSP60-silencing or inhibition of HSP60-ClpP interaction by DCEM1 contribute to mtROS buildup and mitotoxicity due to inhibition of ClpP function or ClpP-deficiency because ClpP is no longer available/functional in alleviating mtROS production and degrading unfolded protein in mitochondria leading to collapse of mitochondrial function and homeostasis. […] Mitochondrial proteases such as ClpP trigger mitochondria-to-nuclear signaling pathway and UPR^mt activation. Inhibition of ClpP expression and function by HSP60-silencing or HSP60 inhibitor such as DCEM1 may abolish mito-nuclear crosstalk leading to inhibition of retrograde signaling. Inhibition of HSP60 renders mitochondria in a fragile and dysfunctional state leading to enhanced apoptosis and blockage of cellular proliferation. Therefore, chemotherapeutic agents along with HSP60 inhibition may provide a novel combination for therapeutic benefits in PCa.

[1] = tested on: mitochondrial chaperonin activity in PCa cells; test: Mitochondrial Chaperonin Activity Assay (MiCAA); settings: 24 h
Method: FIG. 10. Mitochondrial Chaperonin Activity Assay (MiCAA). PCa cells were treated with either DCEM1 (A) or ETB or Mizoribine (B) for 24 h and mitochondrial (Mito) chaperonin activity was analyzed as described in material and methods. In another experiment, PCa cells were transfected with siRNA to target HSP60 mRNA and mitochondrial chaperonin activity was analyzed (C). In (A), the bars in each series from left to right are DMSO and DCEM1. In (B), the bars in each series from left to right are DMSO, ETB, and MZR. In (C), the bars in each series from left to right are siMock, siHSP60-1, and siHSP60-2.
Since HSP60 chaperonin system is crucial for maintaining mitochondrial homeostasis in normal cells, a novel method, Mitochondrial Chaperonin Activity Assay (MiCAA), was developed to analyze chaperonin activity in live cells using flow cytometry to evaluate whether DCEM1 modulates mitochondrial chaperonin activity.

c-Myc = biological target: T1, c-Myc (Homo sapiens, UniProt P01106); test: HSP60 and ClpP expression after c-Myc inhibitor; settings: LNCaP and PC-3 cells, 50 μM, 24 hrs
T1 construct: endogenous in cells; host or cells: LNCaP and PC-3 cells
Text: FIG. 4. HSP60 regulate ClpP expression but not vice versa. (A) HSP60 and ClpP stable knockdown LNCaP and PC-3 cells were generated using shRNA and analyzed for HSP60 and ClpP expression levels. Actin serves as loading control. (B-C) HSP60 and ClpP knockdown LNCaP and PC-3 cells were crosslinked with EGS, lysed and protein samples run on an SDS-PAGE gel as described in material and methods. Membranes were probed with either ClpP or HSP60 antibody to analyze the oligomerization status of these proteins. (D) Enzymatic activity of ClpP was assayed from mitochondrial pellets isolated from HSP60 knockdown PC-3 cells and DU145 Hsp60^+/− cells. (E) HSP60 was overexpressed in PC-3 cells and analyzed for ClpP expression. Actin serves as loading control. (F) ClpP was overexpressed in LNCaP, DU145 and PC-3 cells and analyzed for HSP60 expression. Actin serves as loading control. […] Whole cell lysates were prepared and analyzed for HSP60 and ClpP expression. […] (H) c-Myc binding efficiency with ClpP promoter in HSP60 knockdown LNCaP and PC-3 cells was determined using chromatin immunoprecipitation (ChIP) assay using specific primers. […]
HSP60 regulates expression of ClpP via c-Myc but not vice versa. […] To confirm that c-Myc is a regulator for ClpP expression, PCa cells were treated with c-Myc pharmacological inhibitor 10058-F4 and analyzed ClpP expression levels. […]

T1 sequence (P01106 whole entry): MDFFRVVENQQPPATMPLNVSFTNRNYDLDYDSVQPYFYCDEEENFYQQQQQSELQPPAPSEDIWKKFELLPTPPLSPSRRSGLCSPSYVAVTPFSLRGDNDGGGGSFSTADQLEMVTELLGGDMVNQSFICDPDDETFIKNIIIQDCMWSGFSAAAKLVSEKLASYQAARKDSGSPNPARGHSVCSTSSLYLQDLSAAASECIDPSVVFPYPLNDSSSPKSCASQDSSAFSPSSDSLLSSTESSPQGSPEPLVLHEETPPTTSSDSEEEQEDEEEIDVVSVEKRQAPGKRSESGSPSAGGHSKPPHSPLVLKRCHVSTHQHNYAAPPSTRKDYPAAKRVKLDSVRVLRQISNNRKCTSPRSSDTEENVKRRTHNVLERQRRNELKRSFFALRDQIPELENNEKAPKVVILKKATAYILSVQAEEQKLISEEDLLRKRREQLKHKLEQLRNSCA

Compound: CC(=O)N[C@@H](CS)C(=O)O [NAC]
effect of NAC pre-treatment on DCEM1-induced cell death (LNCaP and PC-3 cells; PCa cells, data not shown): antagonizes DCEM1-induced cell death

Compound: CC(=O)O[C@@]12CO[C@@H]1C[C@H](O)[C@@]1(C)C(=O)[C@H](O)C3=C(C)[C@@H](OC(=O)[C@H](O)[C@@H](NC(=O)OC(C)(C)C)c4ccccc4)C[C@@](O)([C@@H](OC(=O)c4ccccc4)[C@H]21)C3(C)C [docetaxel]
cell death induction in HSP60-silenced cells compared to mock cells (HSP60-silenced cells): more efficacious

Compound: CC1=C(C)C(=O)C(CCCCCCCCCC[P+](c2ccccc2)(c2ccccc2)c2ccccc2)=CC1=O [SKQ1]
effect of mitoROS quencher pre-treatment on DCEM1-induced cell death (LNCaP and PC-3 cells; LNCaP and PC-3 cells pre-treated with SKQ1 followed by DCEM1, MTT assay): inhibited DCEM1—induced cell death

Compound: NC(=O)c1ncn([C@@H]2O[C@H](CO)[C@@H](O)[C@H]2O)c1O [mizoribine, reference compound]
mitochondrial chaperonin activity [1]: significantly inhibited

ClpP expression (c-Myc): downregulate ClpP expression
HSP60 expression (c-Myc): without affecting HSP60 expression
Compound: CCc1ccc(/C=C2/SC(=S)NC2=O)cc1 [10058-F4]
